Structures can show the parent of a compound that is named as a salt. Where two headings read alike, the source gives them in different places.
Biological target: T1, 5-HT3 receptor (Rattus norvegicus, UniProt P35563)
T1 construct: Wistar strain male rats of 9 week age were anesthesized; from tissue; host or cells: whole anesthetized Wistar rat in vivo (endogenous receptor; cardiac vagal afferents by own knowledge)
T1 sequence (P35563 24-483): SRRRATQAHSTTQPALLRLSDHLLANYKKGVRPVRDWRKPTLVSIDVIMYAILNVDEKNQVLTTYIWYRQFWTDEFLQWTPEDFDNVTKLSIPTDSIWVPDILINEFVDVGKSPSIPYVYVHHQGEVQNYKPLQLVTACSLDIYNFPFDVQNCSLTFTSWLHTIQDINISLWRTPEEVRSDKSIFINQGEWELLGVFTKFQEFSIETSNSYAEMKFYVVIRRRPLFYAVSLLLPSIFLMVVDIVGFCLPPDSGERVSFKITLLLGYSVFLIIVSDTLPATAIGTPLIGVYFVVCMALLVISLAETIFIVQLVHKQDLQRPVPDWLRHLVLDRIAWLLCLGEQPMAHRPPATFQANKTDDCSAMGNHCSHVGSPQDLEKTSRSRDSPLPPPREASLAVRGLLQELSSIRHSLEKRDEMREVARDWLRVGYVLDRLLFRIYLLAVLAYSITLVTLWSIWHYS
Experiment: Inhibition of serotonin- or 2-methylserotonin-induced Bezold-Jarisch (BJ) reflex in anesthetized rats (5-HT3-antagonizing activity)
Format: in vivo, Wistar strain male rats
Details: serotonin-induced BJ reflex in rats, read-out: BJ Reflex Inhibitory Activity (ED50)
Procedure: Wistar strain male rats of 9 week age were anesthesized with intraperitoneally administering 1 g/kg of urethane. Under artificial respiration, blood pressure and heart rate were measured. Transient reduction in heart rate and in blood pressure induced by intravenous administration of serotonin or 2-methylserotonin which is a selective agonist of 5-HT3 was used as an index for the reaction via 5-HT3 receptor (Bezold-Jarisch reflex : Paintal, A.S., Physiol. Rev., 53, 159, 1973).
Inhibitory activity of the compounds of the present invention on serotonin-induced Bezold-Jarisch (BJ) reflex in rats is shown in the table below.

ED50 (iv) [µg/kg] | ED50 (po) [µg/kg] | SMILES
1.2 | 6.6 | CCOc1ccccc1NC(=O)C1CCc2nc[nH]c2C1.O=C(O)/C=C/C(=O)O (stereo not shown) [Example 13, N-(2-Ethoxyphenyl)-4,5,6,7-tetrahydrobenzimidazole-5-carboxamide fumarate]
0.32 | 5.9 | COc1ccccc1NC(=O)C1CCc2[nH]cnc2C1 (racemic) [Example 1, N-(2-methyloxyphenyl) -4,5,6,7-tetrahydrobenzimidazole-5carboxamide fumarate 0.8hydrate]
